Literature values, collected in patent US8211048B2 (Henry Ford Health System, priority 2006, dated 2012).
Read-outs that look alike come from different tables or passages of the source.

For `O=C(O)CC(O)(CC(=O)O)C(=O)O` [Citrate], the pKa2 (25 C) is listed as 4.76, the pKa3 (25 C) is listed as 6.40 and the pKa3 (as given for pre-filter fluid pH) is listed as 6.3.
